Results from ChEMBL document CHEMBL3885861, “Open TG-GATES”.

Species on record: Rattus norvegicus
Assay: Open TG-GATES - Regimen: Daily Repeat
Type: toxicity, organism-based, Sprague-Dawley
Set-up: regimen Daily Repeat, gender Male, age 6 weeks
Settings: in vivo, iv, 0 mg/kg, […], route intravenous injection, dose level Control; for KIDNEY_L / KIDNEY_R / KIDNEY_TOTAL: tissue Kidney; for LIVER: tissue Liver; for A/G / ALP / ALT / AST / BUN / CRE / Ca / Cl / DBIL / GLC / IP / K / LDH / Na / PL / RALB / TBIL / TC / TG / TP / gamma-GTP: tissue Plasma

C[C@@H]1[C@H](O)[C@@H](C)/C=C/C=C/C=C/C=C/C=C/C=C/C=C/[C@H](O[C@@H]2O[C@H](C)[C@@H](O)[C@H](N)[C@@H]2O)C[C@@H]2O[C@](O)(C[C@@H](O)C[C@@H](O)[C@H](O)CC[C@@H](O)C[C@@H](O)CC(=O)O[C@H]1C)C[C@H](O)[C@H]2C(=O)O [AMPHOTERICIN B]
Lym (tissue Blood, time 28 day): 77%
MCH (tissue Blood, time 28 day): 18.9 pg
MCHC (tissue Blood, time 28 day): 35%
MCV (tissue Blood, time 28 day): 54 fL
Mono (tissue Blood, time 28 day): 1.4%
Neu (tissue Blood, time 28 day): 19%
PT (tissue Blood, time 28 day): 13 s
Plat (tissue Blood, time 28 day): 114.3 x10_4/uL
RBC (tissue Blood, time 28 day): 808.4 x10_4/ul
Ret (tissue Blood, time 28 day): 2.2%
WBC (tissue Blood, time 28 day): 119.7 x10_2/uL
KIDNEY_L (time 7 day): 1.1 g
KIDNEY_R (time 7 day): 1.1 g
KIDNEY_TOTAL (time 7 day): 2.2 g
KIDNEY_L (time 14 day): 1.3 g
KIDNEY_R (time 14 day): 1.3 g
KIDNEY_TOTAL (time 14 day): 2.6 g
KIDNEY_L (time 28 day): 1.4 g
KIDNEY_R (time 28 day): 1.3 g
KIDNEY_TOTAL (time 28 day): 2.8 g
LIVER (time 7 day): 12 g
LIVER (time 14 day): 14 g
LIVER (time 28 day): 15.5 g
A/G (time 7 day): 0.8
ALP (time 7 day): 1920.8 IU/L
ALT (time 7 day): 35 IU/L
AST (time 7 day): 69 IU/L
BUN (time 7 day): 17 mg/dL
CRE (time 7 day): 0.2 mg/dL
Ca (time 7 day): 11.3 mg/dL
Cl (time 7 day): 105.6 meq/L
DBIL (time 7 day): 0.02 mg/dL
GLC (time 7 day): 179.8 mg/dL
IP (time 7 day): 7 mg/dL
K (time 7 day): 4.3 meq/L
LDH (time 7 day): 63 IU/L
Na (time 7 day): 143.8 meq/L
PL (time 7 day): 136.2 mg/dL
RALB (time 7 day): 2.7 g/dL
TBIL (time 7 day): 0.05 mg/dL
TC (time 7 day): 69.8 mg/dL
TG (time 7 day): 101.6 mg/dL
TP (time 7 day): 5.9 g/dL
gamma-GTP (time 7 day): 1 IU/L
A/G (time 14 day): 0.8
ALP (time 14 day): 1407.4 IU/L
ALT (time 14 day): 40.8 IU/L
AST (time 14 day): 66 IU/L
BUN (time 14 day): 18 mg/dL
CRE (time 14 day): 0.2 mg/dL
Ca (time 14 day): 10.9 mg/dL
Cl (time 14 day): 105 meq/L
DBIL (time 14 day): 0.014 mg/dL
GLC (time 14 day): 185.4 mg/dL
IP (time 14 day): 7.4 mg/dL
K (time 14 day): 4.2 meq/L
LDH (time 14 day): 61 IU/L
Na (time 14 day): 142.8 meq/L
PL (time 14 day): 144.6 mg/dL
RALB (time 14 day): 2.6 g/dL
TBIL (time 14 day): 0.048 mg/dL
TC (time 14 day): 76.2 mg/dL
TG (time 14 day): 117 mg/dL
TP (time 14 day): 6 g/dL
gamma-GTP (time 14 day): 1 IU/L
A/G (time 28 day): 0.7
ALP (time 28 day): 1095.6 IU/L
ALT (time 28 day): 36.8 IU/L
AST (time 28 day): 62.2 IU/L
BUN (time 28 day): 17.2 mg/dL
CRE (time 28 day): 0.2 mg/dL
Ca (time 28 day): 11.1 mg/dL
Cl (time 28 day): 105 meq/L
DBIL (time 28 day): 0.018 mg/dL
GLC (time 28 day): 186 mg/dL
IP (time 28 day): 6.2 mg/dL
K (time 28 day): 3.8 meq/L
LDH (time 28 day): 54.2 IU/L
Na (time 28 day): 144.4 meq/L
PL (time 28 day): 148.6 mg/dL
RALB (time 28 day): 2.6 g/dL
TBIL (time 28 day): 0.06 mg/dL
TC (time 28 day): 73.8 mg/dL
TG (time 28 day): 157 mg/dL
TP (time 28 day): 6.4 g/dL
gamma-GTP (time 28 day): 1.2 IU/L
